Data on 8 molecules can be found in patent US6355785B1, “Guanosine-rich oligonucleotide integrase inhibitors” (Aronex Pharmaceuticals, Inc., priority 1993, dated 2002).

Where “and” joins values, the source holds several entries; their conditions need not be identical. Equal values may be shown once. Read-outs that look alike come from different tables or passages of the source. Marks after values point to notes of the source that are not given here.

In data set [1] the target is T1, recombinant RT (HIV-1BH10) (Human immunodeficiency virus type 1 group M subtype B, UniProt P03366).
T1 construct: Purified recombinant RT (HIV-1BH10) was obtained from the University of Alabama; purchased University of Alabama, Center for AIDS research (obtained from)
The data set is described as follows: Reverse transcriptase enzyme inhibition assays. The class given is biochemical. To be noted: read-out: IC50 recombinant HIV-1 RT.

Data set [2] addresses recombinant HIV-1 integrase (wild-type) (Human immunodeficiency virus type 1 group M subtype B, UniProt P12497). The data set is described as follows: HIV-1 integrase 3′-processing and strand transfer assays. The data set is classed as biochemical. Details: Purified recombinant HIV-1 integrase enzyme (wild-type) was a generous gift from Dr. R. Craigie; purchased gift of Dr. R. Craigie, Laboratory of Molecular Biology, NIDDK (not bought). The procedure: Integrase enzyme assays. Purified recombinant HIV-1 integrase enzyme (wild-type) was a generous gift from Dr. R. Craigie, Laboratory of Molecular Biology, National Institute of Diabetes and Digestive and Kidney Diseases. The enzyme (0.25 μM) was preincubated in reaction buffer at 20° C. for 30 minutes. All 3′-processing and strand-transfer reactions were performed as described previously by Fresen et al. (Fresen, et al., Proc. Natl. Acad. Sci. USA 90:2399-2403 (1993)) and Mazumder et al. (Mazumder, et al., Proc. Natl. Acad. Sci. USA 91:5771-5775 (1994)). Enzyme reactions were quenched by the addition of Maxam-Gilbert loading dye, and an aliquot was electrophoresed on a denaturing 20% polyacrylamide gel. Gels were then dried and subjected to autoradiography using Kodax XAR-2 film or exposed in a Molecular Dynamics Phospholmager cassette.
Integrase was preincubated at a final concentration of 200 (for HIV-1 and HIV-2) or 600 nM (for FIV and SIV) with inhibitor in reaction buffer (50 mM Nac1, 1 mM HEPES, pH 7.5, 50 μM dithiothreitol, 10% glycerol (wt/vol), 7.5 mM MnCl2 or MgCL2 (when specified), 0.1 mg/mL bovine serum albumin, 20 mM 2-mercaptoethanol, 10% dimethyl sulfoxide, and 25 mM MOPS, pH 7.2) at 30° C. for 30 minutes. When magnesium was used as the divalent metal ion, polyethylene glycol was added at a final concentration of 5% to increase activity as previously described (Engelman & Craigie, 1995). Preincubation for 30 minutes of the enzyme with inhibitor was performed to optimize increases the inhibitory activity in the 3′-processing reaction (Fesen et al., 1994). Then, 30 nM of the 5′-end ^32P-labeled linear oligonucleotide substrate was added, and incubation was continued for an additional 1 hr. The final reaction volume was 16 μL.
Electrophoresis and quantitation. Reactions were quenched by the addition of an equal volume […] of loading dye (98% deionized formamide, 10 mM EDTA, 0.025% xylene cyanol, 0.025% bromophenol blue). An aliquot (5 μL) was electrophoresed on a denaturing 20% polyacrylamide gel (0.09 M Tris-borate pH 8.3, 2 mM EDTA, 20% acrylamide, 8M urea). Gels were dried, exposed in a Molecular Dynamics Phosphorimager cassette, and analyzed using a Molecular Dynamics phosphorimager (Sunnyvale, Calif.). Percent inhibition was calculated using the following equation:
where C, N, and D are the fractions of 21mer substrate converted to 19mer (3′-processing product) or strand transfer products for DNA alone, DNA plus integrase, and integrase plus drug, respectively.
Antiviral assay. The RF laboratory strain of HIV-1 was used to infect established cell lines for one hour at 37° C. prior to washing and resuspension in medium containing increasing concentrations of drug. […] Purified recombinant HIV-1 integrase enzyme (wild-type) was a generous gift from Dr. Craigie, Laboratory of Molecular Biology, NIDDK. All 3′-processing and strand-transfers were performed as described previously by Fresen et al. (Fresen et al. (1993) Proc. Natl. Acad. Sci. VSA 90, 2399-2403) and Mazurnder et al. (Mazumder et al. (1994) Proc. Natl. Acad. Sci. USA 91, 5771-75).

In data set [3] the target is HIV-1 integrase (wild-type and deletion mutants) (Human immunodeficiency virus type 1 group M subtype B, UniProt P12497). The data set is described as follows: UV crosslinking DNA binding experiments. To be noted: enzyme preincubated with oligo. The procedure: UV crosslinking experiments. The method used has been described by Engleman et al. Engelman, et al., J. Virol. 68, 5911-5917 (1994). Briefly, integrase (at the indicated concentration) was incubated with substrate in reaction buffer as above for 5 minutes at 30° C. Reactions were then irradiated with a UV transilluminator (254 nm wavelength) from 3 cm above (2.4 mW/cm2) at room temperature for 10 minutes. An equal volume (16 μL) of 2X SDS-PAGE buffer (100 mM Tris, pH 6.8, 4% 2-mercaptoethanol, 4% SDS, 0.2% bromophenol blue, 20% glycerol) was added to each reaction. Twenty μL aliquots were heated at 95° C. for 3 minutes prior to loading on a 12% or 18% SDS-polyacrylamide gel. The gel was run at 120 V for 1.5 hours, dried, and exposed in a Phosphorlmager cassette. […] For the competition experiments (FIG. 29), integrase (200 nM) was preincubated with either the radiolabeled viral DNA substrate (20 nM) or T30177 (20 nM) for 5 minutes at 30° C. prior to the addition of competitor DNA at the indicated concentration.

In data set [4] the test system is HIV-1 strains (SKI, RF, DV, IIIB, ADP/141). Nature of the data set: microbe, parasite or virus in culture. The data set is classed as cell-based.
The test system of a further data set is HIV-1RF. The data set is described as follows: HeLa-CD4-LTR-β-galactosidase cell virus infection assay. The data set is classed as cell-based.
Data set [5] can be described thus: Thermal denaturation of oligomer fold (UV, Tm). The data set is classed as physicochemical.
Data set [6] can be described thus: Oligomer folding by circular dichroism. Particulars: for midpoint of K+ induced folding transition (CD, 264 nm): KCl, 25° C., 20 mM Li3PO4.
The subject of the next data set is HIV-1 strain DV. The data set is described as follows: HIV-1 induced syncytia formation assay in SUP T1 cells. The class given is cell-based.
Data set [7] has as its system HIV-1DV. The data set is described as follows: Analysis of HIV-1 RNA and DNA in single cycle assays, SUP T1. The class given is cell-based.
In another data set the target is HIV-1 RT (Human immunodeficiency virus type 1 group M subtype B, UniProt P04585). Nature of the data set: In vitro inhibition of HIV-1 RT (kinetic analysis). The data set is classed as biochemical.
The test system of data set [8] is HIV-1DV. Nature of the data set: HIV-1 p24 production in SUP T1 cells. The data set is classed as cell-based.
The next data set has as its system HIV-1SKI. The data set is described as follows: Single cycle analysis of HIV-1 cDNA, CEM-SS cells. The class given is cell-based. Particulars: 10- to 100-fold over IC50.
Setting [9] is: 3′-processing, read-out: Anti-Integrase Assay IC50 3′-proc.
Where [10] appears, read: read-out: Enzyme IC50 3-′process.
Setting [11] is: strand transfer, read-out: Anti-Integrase Assay IC50 strand tran.
Setting [12] is: HIV-1 IIIB, CEM-SS or MT4, read-out: Antiviral Assay IC50 IIIB.
The mark [13] stands for this setting: HIV-1 RF, CEM-SS or MT4, read-out: Antiviral Assay IC50 RF.
The mark [14] stands for this setting: HIV-1 SKI, CEM-SS or MT4, read-out: Antiviral Assay IC50 SKI.
Where [15] appears, read: anti-HIV-1 virus production, read-out: Cell Culture IC50.
Where [16] appears, read: cell culture, read-out: IC50 HIV-1RF.

For the molecule `Cc1cn([C@H]2C[C@H](N=[N+]=[N-])[C@@H](COP(=O)(O)OP(=O)(O)OP(=O)(O)O)O2)c(=O)[nH]c1=O` [AZT 5′-triphosphate, reference compound], the IC50 in [1] (template gapped duplex DNA, duplicate experiments) is 0.47 µM and 0.4 µM; in data set [1] (template poly(rA)p(dT)12-18, duplicate experiments), 0.59 µM and 0.6 µM.
“5′-ggttggtgtggttgg-3′ [T30659, reference compound]”: the IC50 is > 0.5 µM in data set [2] (setting [9]); 0.75 µM in data set [2] (setting [10]); > 0.5 µM in data set [2] (setting [11]); > 20 µM in [4] (setting [12]); > 20 µM in data set [4] (setting [13]); 2.81 µM in data set [4] (setting [14]). Besides, the IC50 in data set [4] (setting [15]) was > 20 µM. Besides, the “inhibition of integrase binding to radiolabeled U5 DNA substrate” value in data set [3] is reported as “only modest inhibition of DNA binding”.
For “5′-GTGATGGGTGGGTGGGT-3′ (phosphorothioate termini, further chemistry not given here) [T30526, pPT, dA for dG, tetrad-disrupted mutant of T30177]”, the IC50 was found to be 0.123 µM in data set [2] (setting [11]) and 11.7 µM in data set [4] (setting [13]). Further, in the data set on HIV-1RF, the “less potent than T30177 at inhibiting virus-infected cell β-galactosidase production” value was 10-15 fold.
As for 5′-gggtgggtgggtgggt-3′ [T30695], the IC50 in [2] (setting [10]) was 0.02 µM; in [2] (read-out: Enzyme IC50 Stran Trans), 0.06 µM; in data set [2] (read-out: IC50 3′-PROC), 0.043 ± 0.017 µM; in data set [2] (read-out: IC50 STR · TRA), 0.024 ± 0.004 µM; in [4] (setting [15]), 0.07 µM; in [4] (setting [16]), 0.07 µM. Also, the Tm in data set [5] (1 mM KCl) is 67 °C; in [5] (10 mM KCl, calculated from linear fit), 87* ° C; in [5] (180 mM KCl, calculated from linear fit), 110* ° C. Moreover, the “midpoint of K+ induced folding transition (CD, 264 nm)” value in data set [6] was ~0.02 mM. In data set [6] (RbCl), the “midpoint of Rb+ induced folding transition (CD)” value is on record as 0.5 mM.
As for “5′-gtggtgggtgggtgggt-3′ (GTGGTGGGTGGGTGGGT; phosphodiester, 3'-propanolamine, further chemistry not given here) [I100-15, 17 mer PD, 3′-propanolamine]”, the “T.I. (therapeutic index)” value in the data set with HIV-1 strain DV is on record as >200. Also, the IC50 in the data set on HIV-1 strain DV (SUP T1, HIV-1DV, four days, read-out: IC50 Syn (syncytium inhibition)) is 0.125 µM; in the data set on HIV-1 strain DV (size variants of I100-15, read-out: IC50 Syn.), 0.16 µM; with HIV-1 RT (read-out: ID50 (the source's name)), > 5 µM; with HIV-1DV [8] (SUP T1, HIV-1DV, four days), 0.08 µM. In addition, in the data set with HIV-1DV [7] (36 hr post-infection), the “viral DNA synthesis (PCR)” value is reported as “minimal”. The “HIV-1 specific transcript (RT-PCR)” value in the data set with HIV-1DV [7] (drug added at zero hours) was “reduced level of HIV-1 specific transcript”. In the data set with HIV-1 RT, the Ki was > 5 µM. In addition, the “Percent p24 relative to infected untreated control, Day 7” value in the data set with HIV-1DV [8] (2.5 uM, drug removed day 4) is reported as 0.0%. Further, the “Percent p24 relative to infected untreated control, Day 11” value in the data set on HIV-1DV [8] (2.5 uM, drug removed day 4) is recorded as 0.0%. Besides, in the data set with HIV-1DV [8] (2.5 uM, medium replaced day 4), the “Percent p24 relative to infected untreated control, Day 4” value is 0.0%.
As to “5′-gtggtgggtgtggtgggt-3′ (GTGGTGGGTGTGGTGGGT; phosphorothioate termini, further chemistry not given here) [T30676, pPT variant T30177]”, the IC50 in data set [2] (setting [10]) was 0.134 µM; in [2] (read-out: IC50 STR · TRA), 0.134 ± 0.016 µM; in data set [4] (setting [15]), 1 µM; in data set [4] (setting [16]), 1 µM. Moreover, the Tm was 33 °C in data set [5] (1 mM KCl), 46 °C in [5] (10 mM KCl) and 65 °C in [5] (180 mM KCl). In data set [6], the “midpoint of K+ induced folding transition (CD, 264 nm)” value was 0.27 mM.
In the case of `CC(C)OC(=O)c1cc(NC(=S)OC(C)C)ccc1Cl` [UC38], the “viral cDNA 12 hours post-infection, drug added at time of infection” value in the data set on HIV-1SKI is on record as “no detectable viral DNA”. In addition, the IC50 in [4] (setting [12]) came out at 0.09 µM; in data set [4] (setting [13]) it was 0.02 µM; in [4] (setting [14]), 0.09 µM.
As for `Nc1ccn([C@H]2CC[C@@H](CO)O2)c(=O)n1` [ddC, 2′,3′-dideoxycytidine], the IC50 in [2] (setting [9]) was > 1 µM; in data set [2] (setting [11]), > 1 µM; in [4] (Human immunodeficiency virus 1, IIIB, CEM-SS, read-out: Antiviral Assay IC50 IIIB, HIV-1 IIIB, CEM-SS or MT4), 0.078 µM; in data set [4] (Human immunodeficiency virus 1, IIIB, CEM-SS, read-out: Antiviral Assay IC50 RF, HIV-1 RF, CEM-SS or MT4), 0.057 µM; in data set [4] (Human immunodeficiency virus 1, IIIB, CEM-SS, read-out: Antiviral Assay IC50 SKI, HIV-1 SKI, CEM-SS or MT4), 0.26 µM; in [4] (Human immunodeficiency virus 1, IIIB, CEM-SS, read-out: IC50 virus production, HIV-1 RF, CEM-SS, MOI 0.01) it was 0.057 µM. In the data set on HIV-1SKI, the “viral cDNA 12 hours post-infection, drug added at time of infection” value is “no detectable viral DNA”.

A word on the Tm: it is the temperature at the midpoint of the melting transition. The term Ki denotes a dissociation constant, usually derived from enzyme kinetics or from competition with a known ligand.
